Results as given in PubChem BioAssay (NCI).
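Assay format: 96-well plates, 48-hour exposure. Here, GI50 denotes the concentration required for 50% inhibition of growth. TGI is the concentration that stops growth completely.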

Legend:
Assay in all cases: DTP human tumour cell line panel, 48 h
EKVX NSCLC = system: EKVX NSCLC
SN12C renal = system: SN12C renal
DU-145 prostate = system: DU-145 prostate
A549 NSCLC = system: A549 NSCLC
BT-549 breast = system: BT-549 breast
SF-539 CNS = system: SF-539 CNS
SK-MEL-5 melanoma = system: SK-MEL-5 melanoma
IGROV1 ovarian = system: IGROV1 ovarian
SNB-19 CNS = system: SNB-19 CNS
HCC-2998 colon = system: HCC-2998 colon

**Q.** For CC12C=CC(C)(O1)C1C2c2ccccc2S1(=O)=O (stereo not given), which GI50 (EKVX NSCLC) is on record?
**A.** 92.9 µM

**Q.** And the TGI (EKVX NSCLC)?
**A.** > 100 µM

**Q.** And the GI50 (SN12C renal)?
**A.** 64.4 µM

**Q.** And the TGI (SN12C renal)?
**A.** > 100 µM

**Q.** And the GI50 (DU-145 prostate)?
**A.** 50.3 µM

**Q.** And the TGI (DU-145 prostate)?
**A.** > 100 µM

**Q.** And the GI50 (A549 NSCLC)?
**A.** > 100 µM

**Q.** And the TGI (A549 NSCLC)?
**A.** > 100 µM

**Q.** And the GI50 (BT-549 breast)?
**A.** 21.6 µM

**Q.** And the TGI (BT-549 breast)?
**A.** 81.6 µM

**Q.** What about the GI50 (SF-539 CNS) of the same compound?
**A.** 85.4 µM

**Q.** And the TGI (SF-539 CNS)?
**A.** > 100 µM

**Q.** What about the GI50 (SK-MEL-5 melanoma) of the same compound?
**A.** 38.7 µM

**Q.** And the TGI (SK-MEL-5 melanoma)?
**A.** > 100 µM

**Q.** And the GI50 (IGROV1 ovarian)?
**A.** 25.1 µM

**Q.** And the TGI (IGROV1 ovarian)?
**A.** 95.3 µM

**Q.** What about the GI50 (SNB-19 CNS) of the same compound?
**A.** > 100 µM

**Q.** And the TGI (SNB-19 CNS)?
**A.** > 100 µM

**Q.** And the GI50 (HCC-2998 colon)?
**A.** > 100 µM

**Q.** What about the TGI (HCC-2998 colon) of the same compound?
**A.** > 100 µM

**Q.** For COc1ccc(N2CCN(CC(=O)N3CCN(c4nnc(-c5ccccc5)c(-c5ccccc5)n4)CC3)CC2)cc1, which GI50 (EKVX NSCLC) is on record?
**A.** 4.47 µM

**Q.** And the TGI (EKVX NSCLC)?
**A.** > 100 µM

**Q.** What about the GI50 (SN12C renal) of the same compound?
**A.** 8.64 µM

**Q.** What about the TGI (SN12C renal) of the same compound?
**A.** > 100 µM

**Q.** What about the GI50 (DU-145 prostate) of the same compound?
**A.** 16.2 µM

**Q.** And the TGI (DU-145 prostate)?
**A.** > 100 µM

**Q.** What about the GI50 (A549 NSCLC) of the same compound?
**A.** 16.2 µM

**Q.** What about the TGI (A549 NSCLC) of the same compound?
**A.** > 100 µM

**Q.** And the GI50 (BT-549 breast)?
**A.** 3.47 µM

**Q.** What about the TGI (BT-549 breast) of the same compound?
**A.** 33 µM

**Q.** What about the GI50 (SF-539 CNS) of the same compound?
**A.** 7.71 µM

**Q.** And the TGI (SF-539 CNS)?
**A.** > 81.9 µM

**Q.** And the GI50 (SK-MEL-5 melanoma)?
**A.** 2.32 µM

**Q.** What about the TGI (SK-MEL-5 melanoma) of the same compound?
**A.** 6.63 µM

**Q.** And the GI50 (IGROV1 ovarian)?
**A.** 43.2 µM

**Q.** What about the TGI (IGROV1 ovarian) of the same compound?
**A.** > 100 µM

**Q.** And the GI50 (SNB-19 CNS)?
**A.** > 33.6 µM

**Q.** And the TGI (SNB-19 CNS)?
**A.** > 100 µM

**Q.** And the GI50 (HCC-2998 colon)?
**A.** 9.73 µM

**Q.** What about the TGI (HCC-2998 colon) of the same compound?
**A.** > 100 µM

**Q.** For COc1cc(C/C=C/c2ccccc2)c(OC)cc1O, which TGI (EKVX NSCLC) is on record?
**A.** 33.3 µM

**Q.** And the TGI (SN12C renal)?
**A.** 34.5 µM

**Q.** What about the TGI (DU-145 prostate) of the same compound?
**A.** 37.3 µM

**Q.** And the TGI (A549 NSCLC)?
**A.** > 100 µM

**Q.** What about the TGI (BT-549 breast) of the same compound?
**A.** 58.4 µM

**Q.** And the TGI (SF-539 CNS)?
**A.** 37.6 µM

**Q.** And the TGI (SK-MEL-5 melanoma)?
**A.** 62.3 µM

**Q.** And the TGI (IGROV1 ovarian)?
**A.** 37.2 µM

**Q.** What about the TGI (SNB-19 CNS) of the same compound?
**A.** > 100 µM

**Q.** And the TGI (HCC-2998 colon)?
**A.** 37.4 µM

**Q.** With Cc1cc(C)cc(Nc2nccc(-c3c(-c4ccc(F)cc4)ncn3C3CCNCC3)n2)c1 as the compound, how does the GI50 (EKVX NSCLC) read?
**A.** 1.4 µM

**Q.** And the TGI (EKVX NSCLC)?
**A.** 3.19 µM

**Q.** What about the GI50 (SN12C renal) of the same compound?
**A.** 1.21 µM

**Q.** What about the TGI (SN12C renal) of the same compound?
**A.** 2.59 µM

**Q.** What about the GI50 (DU-145 prostate) of the same compound?
**A.** 1.46 µM

**Q.** And the TGI (DU-145 prostate)?
**A.** 3.14 µM

**Q.** And the GI50 (A549 NSCLC)?
**A.** 1.09 µM

**Q.** And the TGI (A549 NSCLC)?
**A.** 3.16 µM

**Q.** What about the GI50 (BT-549 breast) of the same compound?
**A.** 1.52 µM

**Q.** And the TGI (BT-549 breast)?
**A.** 3.11 µM

**Q.** And the GI50 (SF-539 CNS)?
**A.** 1.75 µM

**Q.** What about the TGI (SF-539 CNS) of the same compound?
**A.** 3.25 µM

**Q.** And the GI50 (SK-MEL-5 melanoma)?
**A.** 1.75 µM

**Q.** What about the TGI (SK-MEL-5 melanoma) of the same compound?
**A.** 3.31 µM

**Q.** What about the GI50 (IGROV1 ovarian) of the same compound?
**A.** 0.312 µM

**Q.** And the TGI (IGROV1 ovarian)?
**A.** 1.67 µM

**Q.** And the GI50 (SNB-19 CNS)?
**A.** 1.68 µM

**Q.** And the TGI (SNB-19 CNS)?
**A.** 3.71 µM

**Q.** What about the GI50 (HCC-2998 colon) of the same compound?
**A.** 1.28 µM

**Q.** And the TGI (HCC-2998 colon)?
**A.** 2.64 µM
